According to ChEMBL document CHEMBL1132534, “Predicting relative binding free energies of tacrine-huperzine A hybrids as inhibitors of acetylcholinesterase” (J Med Chem, 1999):

Target: Acetylcholinesterase (Homo sapiens) (UniProt P22303)
Assay: Inhibitory activity against acetylcholinesterase compared to the IC50 of (-)-9M-HTH

Acetylcholinesterase (Homo sapiens), sequence (P22303 whole entry): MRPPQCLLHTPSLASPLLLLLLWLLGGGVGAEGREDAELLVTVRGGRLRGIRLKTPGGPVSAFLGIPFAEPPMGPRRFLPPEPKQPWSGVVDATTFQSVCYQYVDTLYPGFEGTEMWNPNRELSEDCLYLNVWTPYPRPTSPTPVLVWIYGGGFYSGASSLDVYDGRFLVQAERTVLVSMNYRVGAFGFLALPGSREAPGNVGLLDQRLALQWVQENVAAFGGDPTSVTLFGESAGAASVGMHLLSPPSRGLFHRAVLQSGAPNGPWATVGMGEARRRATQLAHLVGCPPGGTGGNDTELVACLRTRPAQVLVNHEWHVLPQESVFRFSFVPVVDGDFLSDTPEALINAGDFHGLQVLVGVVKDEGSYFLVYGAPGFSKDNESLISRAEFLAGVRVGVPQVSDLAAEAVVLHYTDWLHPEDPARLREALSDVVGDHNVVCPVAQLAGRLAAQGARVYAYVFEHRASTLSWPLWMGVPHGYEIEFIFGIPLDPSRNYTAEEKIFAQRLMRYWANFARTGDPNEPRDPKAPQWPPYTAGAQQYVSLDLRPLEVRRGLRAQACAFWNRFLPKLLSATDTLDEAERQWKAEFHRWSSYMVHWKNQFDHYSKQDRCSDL

Work on CC1=C[C@@H]2Cc3nc4cc(F)ccc4c(N)c3[C@H](C1)C2 yielded a Fold IC50 of 15.
